Results taken from PubChem BioAssay AID248 (DTP/NCI, 2004).
Inconclusive results and toxic doses are left out. Rule as the data show it: active = T/C of 150% or more; inactive = T/C below 125%.

Tested on: L1210 leukemia ip in BDF1 mice, survival T/C
Assay: NCI In Vivo Anticancer Drug Screen. Data for tumor model L1210 Leukemia (intraperitoneal) in B6D2F1 (BDF1) mice
Details: endpoint: mean survival time, higher = longer survival
Procedure, shortened: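 Transplanted-tumor mice were given test agent; controls received vehicle only. Survival readings from the two groups were divided (treated over control).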

[1] = dose: 100.0 mg/kg/injection, schedule: Q01DX001 (ip), vehicle: saline
[2] = dose: 200.0 mg/kg/injection, schedule: Q01DX001 (ip), vehicle: saline
[3] = dose: 400.0 mg/kg/injection, schedule: Q01DX001 (ip), vehicle: saline

Measured: T/C

CCCCCCCCCC(=O)OCC1OC(=O)C(C)N(C)C(=O)CN(C)C(=O)C2C(=O)CC(C)N2C(=O)C(C(C)C)NC(=O)C1NC(=O)c1c2nc3c(C(=O)NC4C(=O)NC(C(C)C)C(=O)N5C(C)CC(OC(=O)CCCCCCCCC)C5C(=O)N(C)CC(=O)N(C)C(C(C)C)C(=O)OC4C)ccc(C)c3oc-2c(C)c(=O)c1N (centres undefined)
inactive: dose: 0.2 mg/kg/injection, schedule: Q01DX009 (ip), vehicle: Klucel (hydroxypropylcellulose) (HPC) 92 % of control | dose: 0.4 mg/kg/injection, schedule: Q01DX009 (ip), vehicle: Klucel (hydroxypropylcellulose) (HPC) 94 % of control | dose: 0.6 mg/kg/injection, schedule: Q04DX003 (ip), vehicle: Klucel (hydroxypropylcellulose) (HPC) 97 % of control | dose: 0.8 mg/kg/injection, schedule: Q01DX009 (ip), vehicle: Klucel (hydroxypropylcellulose) (HPC) 96 % of control | dose: 1.2 mg/kg/injection, schedule: Q04DX003 (ip), vehicle: Klucel (hydroxypropylcellulose) (HPC) 95 % of control | dose: 1.6 mg/kg/injection, schedule: Q01DX001 (ip), vehicle: Klucel (hydroxypropylcellulose) (HPC) 92 % of control | dose: 1.6 mg/kg/injection, schedule: Q01DX009 (ip), vehicle: Klucel (hydroxypropylcellulose) (HPC) 92 % of control | dose: 2.4 mg/kg/injection, schedule: Q04DX003 (ip), vehicle: Klucel (hydroxypropylcellulose) (HPC) 90 % of control | dose: 3.2 mg/kg/injection, schedule: Q01DX001 (ip), vehicle: Klucel (hydroxypropylcellulose) (HPC) 92 % of control | dose: 3.2 mg/kg/injection, schedule: Q01DX009 (ip), vehicle: Klucel (hydroxypropylcellulose) (HPC) 89 % of control | dose: 4.8 mg/kg/injection, schedule: Q04DX003 (ip), vehicle: Klucel (hydroxypropylcellulose) (HPC) 91 % of control | dose: 6.4 mg/kg/injection, schedule: Q01DX001 (ip), vehicle: Klucel (hydroxypropylcellulose) (HPC) 91 % of control | dose: 9.6 mg/kg/injection, schedule: Q04DX003 (ip), vehicle: Klucel (hydroxypropylcellulose) (HPC) 87 % of control | dose: 12.8 mg/kg/injection, schedule: Q01DX001 (ip), vehicle: Klucel (hydroxypropylcellulose) (HPC) 89 % of control

CCOC(=O)CSc1nc2ccccc2[nH]1
inactive: dose: 100.0 mg/kg/injection, schedule: Q01DX001 (ip), vehicle: saline with Tween-80 97 % of control | dose: 200.0 mg/kg/injection, schedule: Q01DX001 (ip), vehicle: saline with Tween-80 98 % of control | dose: 400.0 mg/kg/injection, schedule: Q01DX001 (ip), vehicle: saline with Tween-80 93 % of control

CC(C)CC1C(C(C)C)C=NN1C (centres undefined)
inactive: dose: 50.0 mg/kg/injection, schedule: Q01DX001 (ip), vehicle: carboxymethylcellulose (CMC) 100 % of control | dose: 100.0 mg/kg/injection, schedule: Q01DX001 (ip), vehicle: carboxymethylcellulose (CMC) 86 % of control | dose: 200.0 mg/kg/injection, schedule: Q01DX001 (ip), vehicle: carboxymethylcellulose (CMC) 100 % of control | dose: 400.0 mg/kg/injection, schedule: Q01DX001 (ip), vehicle: carboxymethylcellulose (CMC) 94 % of control

CN(C)C1C(=O)C(C(N)=O)=C(O)C2(O)C(=O)C3=C(O)c4c(O)cccc4C(C)(O)C3C(O)C12 (centres undefined)
inactive: dose: 19.5 mg/kg/injection, schedule: Q01DX Z (ip), vehicle: carboxymethylcellulose (CMC) 94 % of control | dose: 39.0 mg/kg/injection, schedule: Q01DX Z (ip), vehicle: carboxymethylcellulose (CMC) 91 % of control | dose: 50.0 mg/kg/injection, schedule: Q01DX001 (ip), vehicle: saline 93 % of control | dose: 50.0 mg/kg/injection, schedule: Q01DX Z (ip), vehicle: water 117 % of control | dose: 78.0 mg/kg/injection, schedule: Q01DX Z (ip), vehicle: carboxymethylcellulose (CMC) 89 % of control | [1] 90 % of control | dose: 100.0 mg/kg/injection, schedule: Q01DX Z (ip), vehicle: water 119 % of control | dose: 156.0 mg/kg/injection, schedule: Q01DX Z (ip), vehicle: carboxymethylcellulose (CMC) 98 % of control | [2] 95 % of control | [3] 101 % of control

COC1OCC(O)C(O)C1O (centres undefined)
inactive: [1] 92 % of control | dose: 100.0 mg/kg/injection, schedule: Q04DX003 (ip), vehicle: saline 98 % of control | [2] 95 % of control | dose: 200.0 mg/kg/injection, schedule: Q04DX003 (ip), vehicle: saline 106 % of control | [3] 95 % of control | dose: 400.0 mg/kg/injection, schedule: Q04DX003 (ip), vehicle: saline 101 % of control

Cc1cc(C)cc(Cc2ccc3ccccc3c2)c1
inactive: dose: 50.0 mg/kg/injection, schedule: Q01DX001 (ip), vehicle: Klucel (hydroxypropylcellulose) (HPC) 109 % of control | dose: 100.0 mg/kg/injection, schedule: Q01DX001 (ip), vehicle: Klucel (hydroxypropylcellulose) (HPC) 98 % of control | dose: 200.0 mg/kg/injection, schedule: Q01DX001 (ip), vehicle: Klucel (hydroxypropylcellulose) (HPC) 96 % of control | dose: 400.0 mg/kg/injection, schedule: Q01DX001 (ip), vehicle: Klucel (hydroxypropylcellulose) (HPC) 90 % of control

CC(C)=NNC(N)=O
inactive: dose: 12.5 mg/kg/injection, schedule: Q01DX009 (ip), vehicle: saline 97 % of control | dose: 25.0 mg/kg/injection, schedule: Q01DX009 (ip), vehicle: saline 100 % of control | dose: 25.0 mg/kg/injection, schedule: Q04DX002 (ip), vehicle: saline 98 % of control | dose: 50.0 mg/kg/injection, schedule: Q01DX009 (ip), vehicle: saline 94 % of control | dose: 50.0 mg/kg/injection, schedule: Q04DX002 (ip), vehicle: saline 103 % of control

CC[N+](C)(CC)CCCNC(=O)C(c1ccccc1)c1ccccc1
inactive: dose: 100.0 mg/kg/injection, schedule: Q04DX003 (ip), vehicle: saline with Tween-80 100 % of control

c1ccc(CNc2ccccc2)cc1
inactive: dose: 100.0 mg/kg/injection, schedule: Q01DX009 (sc), vehicle: olive oil, sesame oil, peanut oil 95 % of control | dose: 100.0 mg/kg/injection, schedule: Q04DX003 (sc), vehicle: olive oil, sesame oil, peanut oil 94 % of control | dose: 200.0 mg/kg/injection, schedule: Q01DX009 (sc), vehicle: olive oil, sesame oil, peanut oil 92 % of control | dose: 200.0 mg/kg/injection, schedule: Q04DX003 (sc), vehicle: olive oil, sesame oil, peanut oil 102 % of control | dose: 400.0 mg/kg/injection, schedule: Q01DX009 (sc), vehicle: olive oil, sesame oil, peanut oil 100 % of control | dose: 400.0 mg/kg/injection, schedule: Q04DX003 (sc), vehicle: olive oil, sesame oil, peanut oil 105 % of control

CCOc1ccc(NC(N)=O)cc1
inactive: dose: 100.0 mg/kg/injection, schedule: Q04DX002 (ip), vehicle: gum acacia 107 % of control | dose: 200.0 mg/kg/injection, schedule: Q04DX002 (ip), vehicle: gum acacia 95 % of control | dose: 400.0 mg/kg/injection, schedule: Q04DX002 (ip), vehicle: gum acacia 100 % of control

Cc1ccc(NS(=O)(=O)c2ccc(F)cc2)c(C)c1
inactive: dose: 100.0 mg/kg/injection, schedule: Q01DX009 (ip), vehicle: Klucel (hydroxypropylcellulose) (HPC) 94 % of control | dose: 100.0 mg/kg/injection, schedule: Q04DX003 (ip), vehicle: Klucel (hydroxypropylcellulose) (HPC) 100 % of control | dose: 200.0 mg/kg/injection, schedule: Q01DX009 (ip), vehicle: Klucel (hydroxypropylcellulose) (HPC) 94 % of control | dose: 200.0 mg/kg/injection, schedule: Q04DX003 (ip), vehicle: Klucel (hydroxypropylcellulose) (HPC) 97 % of control | dose: 400.0 mg/kg/injection, schedule: Q01DX009 (ip), vehicle: Klucel (hydroxypropylcellulose) (HPC) 101 % of control | dose: 400.0 mg/kg/injection, schedule: Q04DX003 (ip), vehicle: Klucel (hydroxypropylcellulose) (HPC) 101 % of control

CC1=C/C(=N/N=c2\ccn(O)cc2C)C=CC1=N
inactive: dose: 50.0 mg/kg/injection, schedule: Q04DX002 (sc), vehicle: saline with Tween-80 100 % of control | dose: 100.0 mg/kg/injection, schedule: Q04DX002 (sc), vehicle: saline with Tween-80 100 % of control | dose: 200.0 mg/kg/injection, schedule: Q04DX002 (sc), vehicle: saline with Tween-80 100 % of control | dose: 400.0 mg/kg/injection, schedule: Q04DX002 (sc), vehicle: saline with Tween-80 93 % of control

CC1=NC(C)(C)CO1
inactive: [1] 101 % of control | [2] 97 % of control | [3] 95 % of control
